According to patent US20190316081A1, “MEDIA AND METHODS FOR EXPANSION OF PLURIPOTENT STEM CELLS” (priority 2018, published 2019):

Legend:
Type in all cases: cell-based, human
5i-hPSC = assay: Medium component screen and PD dose response on OCT4/SOX2 pluripotent phenotype, feeder-free adherent and suspension
Description: For intracellular staining, dissociated cells were fixed with 4% paraformadehyde (Electron Microscopy Sciences) for 10 minutes and permeabilized with 0.1% Triton™ X-100 (Sigma-Aldrich). Cells were then stained with the primary antibody (OCT4, BD Biosciences; SOX2, R&D; FOXA2, Abnova; cTNT, Thermo Fisher Scientific; TUBB3, Cell Signaling; PDX1, R&D; NKX6.1, DSHB) for 25 minutes followed by the secondary antibody for 25 minutes at 4° C. Stained cells were analyzed on a FACSCanto™ II (BD) or FACS Fortessa™ (BD) flow cytometer.
Statistical analysis was performed using the JMP software (SAS). Parametric tests were used for qpcr, doubling time, and maximum density experiments, with the Student's T-test used for 2 treatment experiments and Tukey's HSD test used for experiments with 3 or more treatments. A non-parametric test (Kruskal-Wallis) was used for colony formation experiments since this assay was developed specifically for this study. […] The linear regression model was developed in Excel (Microsoft®).
To test this hypothesis, a 96 well plate platform was designed to screen the effects of medium components on 5i-hPSC pluripotency in suspension cultures and in feeder-free adherent cultures (FIG. 8A). To examine the effects of adherent culture on pluripotency, a Geltrex™ coating was used to obtain an adherent culture condition in the absence of a feeder layer. […]

HES2 and H9 cell lines = assay: 4i suspension culture supplemented with dextran sulfate; conditions: dextran sulfate at seeding
Description: HES2 and H9 hPSC were cultured in adherent conditions in 5i medium for >5 passages. Cells were dissociated with TrypLE™ as described previously and seeded as single cells into 4i medium in the presence of ROCK inhibitor into orbital shaker suspension culture plates (pre-treated with 5% Pluronic® F-68) in the presence of dextran sulfate at seeding. Half of the medium volume was exchanged every day starting on the second day by tilting the plate at a 45 degree angle and allowing cells to settle before removing half of the medium and replenishing it with fresh 4i medium without dextran sulfate.

PSC (HES2) [1] = assay: Stirred tank bioreactor suspension culture of PSC with dextran sulfate; conditions: stirred tank bioreactors seeded with DS, 3 passages
Description: Six well culture plates were pre-coated with 5% Pluronic F-68® (Thermo Fisher Scientific) for 30 minutes at 37° C. or overnight at 4° C. Dissociation of PSC to single cells was carried out by TrypLE™ Express (Thermo Fisher Scientific) treatment for 5 minutes at room temperature. Single cells were seeded into the Pluronic F-68® coated 6-well plates that were then placed on an orbital shaker with 10 μM Y-27632 (Reagents Direct) in normoxic (21% 02) conditions. Cells were seeded at densities of 2×10^5 cells/mL unless otherwise noted. Medium was exchanged by angling the plate at a 45° angle and allowing aggregates to settle onto the bottom edge. Two days after seeding, half of the growth medium was removed and replaced each day. Cells were harvested at the end of culture by dissociation with a 5 minute TrypLE™ treatment at 37° C. and cell counts were performed by Trypan Blue exclusion (Thermo Fisher Scientific). Bioreactor experiments were conducted following manufacturer instructions for operating the Ambr™-24 bioreactor system (Sartorius). Cell dissociation and medium exchange were performed as described above. […] Aggregates were analyzed using the Mastersizer™ 3000 particle analyzer (Malvern) according to manufacturer's instructions. […]
Apoptosis analysis was conducted using Annexin V staining. […] Cells were analyzed on a FACS Canto™ II (BD) or FACS Fortessa™ (BD) flow cytometer. […]

PSC = assay: Karyotype and germ layer differentiation of DS treated PSC
Description: Six well culture plates were pre-coated with 5% Pluronic F-68® (Thermo Fisher Scientific) for 30 minutes at 37° C. or overnight at 4° C. Dissociation of PSC to single cells was carried out by TrypLE™ Express (Thermo Fisher Scientific) treatment for 5 minutes at room temperature. […] Cells were seeded at densities of 2×10^5 cells/mL unless otherwise noted. Medium was exchanged by angling the plate at a 45° angle and allowing aggregates to settle onto the bottom edge. Two days after seeding, half of the growth medium was removed and replaced each day. Cells were harvested at the end of culture by dissociation with a 5 minute TrypLE™ treatment at 37° C. and cell counts were performed by Trypan Blue exclusion (Thermo Fisher Scientific). […] Aggregates were dissociated and seeded into adherent conditions after 3 passages in suspension with DS. Directed differentiation into all three germ layers was performed as described previously for endoderm^40, mesoderm^41, and ectoderm^42 lineages. G-Band karyotyping was performed by WiCell.

PSC (HES2) [2] = assay: Orbital shaker suspension culture of PSC aggregates with dextran sulfate; conditions: for aggregate control properties in PSC: data not shown
Description: In brief, HES2 were cultured on Geltrex™ LDEV-Free Reduced Growth Factor Basement Membrane Matrix (Thermo Fisher Scientific, 1:50 dilution in DMEM) coated plates in Nutristem® hESC XF Culture Medium (Biological Industries, “NS”) or E8 Medium (Thermo Fisher Scientific), supplemented with 1× Penicillin-Streptomycin (Thermo Fisher Scientific). Plates were coated with Geltrex™ for 30 minutes at 37° C. Cells were passaged 1:24 every 6 days by dissociation with TrypLE™ Express (Thermo Fisher Scientific) at 37° C. for 4-5 minutes. All cell line stocks were confirmed negative for mycoplasma contamination. Conversion to a “naïve” hPSC state was performed as described previously^35. Dextran sulfate compounds (DS, Sigma) were prepared by dilution in deionized water at a stock concentration of 100 mg/mL followed by filter sterilization.
Six well culture plates were pre-coated with 5% Pluronic F-68® (Thermo Fisher Scientific) for 30 minutes at 37° C. or overnight at 4° C. Dissociation of PSC to single cells was carried out by TrypLE™ Express (Thermo Fisher Scientific) treatment for 5 minutes at room temperature. Single cells were seeded into the Pluronic F-68® coated 6-well plates that were then placed on an orbital shaker with 10 μM Y-27632 (Reagents Direct) in normoxic (21% 02) conditions. Cells were seeded at densities of 2×10^5 cells/mL unless otherwise noted. Medium was exchanged by angling the plate at a 45° angle and allowing aggregates to settle onto the bottom edge. Two days after seeding, half of the growth medium was removed and replaced each day. Cells were harvested at the end of culture by dissociation with a 5 minute TrypLE™ treatment at 37° C. and cell counts were performed by Trypan Blue exclusion (Thermo Fisher Scientific). Bioreactor experiments were conducted following manufacturer instructions for operating the Ambr™-24 bioreactor system (Sartorius). Cell dissociation and medium exchange were performed as described above. Bioreactors were operated at 450 rpm and seeded with 4×10^5 cells/mL unless otherwise noted. Aggregates were analyzed using the Mastersizer™ 3000 particle analyzer (Malvern) according to manufacturer's instructions. Unless otherwise noted, the 560 μm aperture was used for analysis. Aggregates were dissociated and seeded into adherent conditions after 3 passages in suspension with DS. Directed differentiation into all three germ layers was performed as described previously for endoderm^40, mesoderm^41, and ectoderm^42 lineages. G-Band karyotyping was performed by WiCell.
Statistical analysis was performed in Excel software (Microsoft®). […] Coefficient of variation was calculated by estimating the volume of each aggregate from its diameter, calculating the standard deviation of each treatment, and normalizing to the mean. […]

H9 hPSC = assay: Aggregation control by DS in conventional and naive conditions; conditions: conventional and naive pluripotent states

Which “correlation of PD level to pluripotent phenotype” value (5i-hPSC; feeder-free adherent and suspension) does the source give for `O=C(NOC[C@H](O)CO)c1ccc(F)c(F)c1Nc1ccc(I)cc1F` [PD, N-[(2R)-2,3-dihydroxypropoxy]-3,4-difluoro-2-[(2-fluoro-4-iodophenyl)amino]-benzamide] here?
Its value is “negatively correlated”.

What about the “linear regression coefficient of PD level on OCT4/SOX2 expression” value (5i-hPSC; model with growth format and interaction, 56 observations) of the same compound?
The value was −27.0584.

Which results are given for dextran sulfate [DS]?
mean aggregate size and variance relative to untreated conditions (HES2 and H9 cell lines): both observed to decrease; expression of pluripotency markers Oct4 and Sox2 (PSC (HES2) [1]): > 85%; karyotype (PSC; 9 passages (5 adherent, 4 suspension)): retained a normal karyotype; differentiation to three germ layers (PSC; after 9 passages with DS): maintained the ability to differentiate to cell types from all three germ layers; homogeneity of aggregate sizes (PSC (HES2) [2]; orbital shaker, 4 days): reduced standard deviations and lower coefficients of variation of aggregate volume; aggregate diameter (PSC (HES2) [2]; orbital shaker, DS of 4, 15 and 40 kDa at varied concentration): significantly reduced diameters in a dose-dependent fashion; control of aggregation (H9 hPSC): able to control H9 hPSC aggregation in both pluripotent states

With heparin as the compound, how does the “aggregate control properties in PSC” value (PSC (HES2) [2]) read?
The value was “displayed aggregate control properties”.

With pentosan polysulfate as the compound, how does the “aggregate control properties in PSC” value (PSC (HES2) [2]) read?
Its value is “displayed aggregate control properties”.
